These are literature values, as cited in patent US20190275102A1, “STERILE INJECTABLE COMPOSITION COMPRISING CARFILZOMIB” (CADILA HEALTHCARE LIMITED, priority 2018, published 2019).

`CC(C)C[C@H](NC(=O)[C@H](CCc1ccccc1)NC(=O)CN1CCOCC1)C(=O)N[C@@H](Cc1ccccc1)C(=O)N[C@@H](CC(C)C)C(=O)[C@@]1(C)CO1` [Carfilzomib, (2S)—N—((S)-1-((S)-4-methyl-1-((R)-2-methytoxiran2-yl)-1-oxopentan-2-ylcarbamoyl)-2-phenylethyl)-2-((S)-2-(2-morpholinoacetamido)-4-phenylbutanamido)-4-methylpentanamide]: the “solubility in acidic conditions” value (acidic conditions) is listed as “very slightly soluble”. In addition, the solubility in water entry (water) is reported as “practically insoluble”.

For sulfobutylether beta-cyclodextrin, the “single dose showing renal tolerance” value in the data set on kidney (animal trials, single-dose studies, i.v.) was “up to 2000 mg/kg”. Moreover, in the data set with kidney (in vivo), the “dose with evidence of renal cellular toxicity” value is listed as no less than 160 mg/kg/day and the renal function entry is “not impaired”.
